For one data set, the system named is Wnt signal. Description: Detection of Wnt signal (TOPglow luciferase reporter, LiCl-stimulated). Type of data set: cell-based. Particulars: Homo sapiens; HEK293 clone carrying pNeo-TOP reporter; LiCl stimulation; luciferase luminescence; read-out: Test Example 1 IC50 (concentration required for inhibiting the Wnt signal activity by 50%). In short, it runs like this: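 Stable HEK293 clone carrying a TOPglow TCF/Wnt-responsive luciferase reporter, stimulated with 80 mM LiCl in the diluted sample medium alongside compound; luminescence read with Bright-Glo 6 h after addition. IC50 derived from activity scaled between LiCl-only wells (100%) and wells lacking both LiCl and sample (0%).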
For orientation: Reporter assays use an easily measured gene product as a stand-in for the process of interest.

Data set [1] is described as follows: Evaluation of solubility (Examples 25 and 26), visual judgment. The class given is physicochemical. Particulars: aqueous buffer, thermodynamic from solid; Dulbecco's phosphate-buffered saline pH 7; about 10 mg sample, test solution added in 0.1 mL portions until dissolved. Here is the method: About 10 mg of a sample was weighed accurately and placed in a 10-mL polypropylene test tube, a test solution shown below was added thereto by portions (0.1 mL) until the sample was dissolved completely. When the test solution was added, the mixed solution was stirred intermittently in a range from about 30 seconds to 3 minutes using a Vortex mixer every time the test solution was added. The solubility (mM) of the sample was calculated from the added amount of the test solution required until the presence of any solid material was not observed by visual judgment.
Test solution: GIBCO (registered trade name) (Dulbecco's phosphate-buffered saline having a pH value of 7, Invitrogen Corporation)

The subject of data set [2] is human chronic myologenous leukemia cell strain K562. Description: Anti-tumor effect in human K562 subcutaneous transplantation model. Particulars: day 28.
A short description of data set [3]: PAMPA test (parallel artificial membrane permeability assay). The class given is in vitro ADME. Particulars: phosphate buffer pH 6.8, about 200 μM, about 5 hours, room temperature, read-out: Test Example 4 membrane permeation coefficient Pe. In short, it runs like this:
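Compounds at about 200 μM in pH 6.8 phosphate buffer with about 1% DMSO on the donor side. Transport across a lipid-precoated PVDF membrane with shaking at 350 rpm, room temperature, about 5 h. Donor and acceptor concentrations measured by HPLC-UV; Pe (cm/s) calculated from these.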
In general terms: The PAMPA barrier holds no transporters, so it reflects passive diffusion.

Data set [4] in a line: Evaluation of metabolic stability. The class given is in vitro ADME, human. Particulars: 0.2 mg/mL HLM, 0.1 μM test substance, 15 minutes at 37° C., with vs without NADPH production. In short, it runs like this: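 Pooled human liver microsomes (0.2 mg/mL) in 0.1 M potassium phosphate pH 7.4 with EDTA, MgCl2 and an NADPH-generating system (NADP+, glucose-6-phosphate, G6PDH). Residual ratio by LC-MS/MS, comparing with versus without NADPH generation.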

Data set [5] in a line: Evaluation of solubility (DMSO stock into PBS, HPLC-UV). Particulars: aqueous buffer, kinetic from dmso stock; Dulbecco's phosphate-buffered saline pH 7, room temperature, about 15 minutes shaking; values greater than 200 μM regarded as 200 μM; read-out: Test Example 3 solubility. The class given is physicochemical. In short, it runs like this:
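Kinetic solubility: 20 mM DMSO stock spiked into Dulbecco's PBS pH 7, shaken about 15 min at room temperature, then suction-filtered; filtrate quantified by HPLC-UV against a 200 μM DMSO standard. Values above 200 μM are capped at 200 μM.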

Values after ≈ are worked out from the molar mass of the structure shown.

Regarding `C=CCN1CC(=O)N2[C@@H](Cc3ccc(OP(=O)(O)O)cc3F)C(=O)N(Cc3cccc(N4CC(N5CCN(CC)CC5)C4)n3)C[C@@H]2N1C(=O)NCc1ccccc1` [Example 25, 4-(((6S,9aS)-1-(Benzylcarbamoyl)-8-((6-(3-(4-ethylpiperazin-1-yl)azetidin-1-yl)pyridin-2-yl)methyl)-4,7-dioxo-2-(prop-2-en-1-yl)-octahydro-1H-pyrazino[2,1-c][1,2,4]triazin-6-yl)methyl)-3-fluorophenyl dihydrogen phosphate], in the data set with Wnt signal, the IC50 was 180 nM. Also, in data set [1], the solubility (as a rule, the concentration that dissolves in the medium under given conditions) was at least 124000 µM.

Regarding `C=CCN1CC(=O)N2C(CN(Cc3cccc(N4CC(N5CCN(CC)CC5)C4)n3)C(=O)[C@@H]2Cc2ccc(OP(=O)(O)O)cc2)N1C(=O)NCc1ccccc1` (stereo partly drawn) [Example 26, 4-(((6S,9aS)-1-(Benzylcarbamoyl)-8-((6-(3-(4-ethylpiperazin-1-yl)azetidin-1-yl)pyridin-2-yl)methyl-4,7-dioxo-2-(prop-2-en-1-yl)-octahydro-1H-pyrazino[2,1-c][1,2,4]triazin-6-yl)methyl)phenyldihydrogen phosphate], the IC50 in the data set on Wnt signal worked out at 1190 nM. In data set [1], this molecule showed a solubility of 42000 to 62000 µM.

For the molecule `Cc1nc(Nc2ncc(C(=O)Nc3c(C)cccc3Cl)s2)cc(N2CCN(CCO)CC2)n1` [Dasatinib, reference compound], the “the number of individuals in which a tumor was not observed by visual judgment/total number of mice” value in data set [2] (Dasatinib 5 mg/kg alone, oral qd, 5 days on/2 days off, two cycles) was 0/9.

Regarding `C=CCN1CC(=O)N2[C@@H](Cc3ccc(O)cc3F)C(=O)N(Cc3cccc(N4CC(N5CCN(CC)CC5)C4)n3)C[C@@H]2N1C(=O)NCc1ccccc1` [Example 1, (6S,9aS)-N-Benzyl-8-((6-(3-(4-ethylpiperazin-1-yl)azetidin-1-yl)pyridin-2-yl)methyl)-6-((2-fluoro-4-hydroxyphenyl)methyl)-4,7-dioxo-2-(prop-2-en-1-yl)-octahydro-1H-pyrazino[2,1-c][1,2,4]triazine-1-carboxamide], the “the number of individuals in which a tumor was not observed by visual judgment/total number of mice” value in data set [2] (Compound of Example 1 35 mg/kg oral bid for 5 days combined with Dasatinib 5 mg/kg qd, * P 0.05 or less vs Dasatinib alone (Fisher's test)) is 6/10*; in data set [2] (Compound of Example 1 50 mg/kg oral bid for 5 days combined with Dasatinib 5 mg/kg qd, *** P 0.01 or less vs Dasatinib alone (Fisher's test)), 9/10***; in data set [2] (Compound of Example 1 75 mg/kg oral bid for 5 days combined with Dasatinib 5 mg/kg qd, *** P 0.01 or less vs Dasatinib alone (Fisher's test)) it was 10/10***. The Papp in data set [3] worked out at 2.01 ×10⁻⁶ cm/s. Moreover, the “Test Example 2 residual ratio of the test substance” value (“Test Example 2 residual ratio” for short) in data set [4] is 47%. Besides, the solubility in data set [5] is 197 µM (≈ 143 µg/mL). The IC50 in the data set with Wnt signal was found to be 60 nM.

Turning to `C=CCN1CC(=O)N2[C@@H](Cc3ccc(O)cc3)C(=O)N(Cc3cccc(N4CC(N5CCN(C)[C@@H](C)C5)C4)n3)C[C@@H]2N1C(=O)NCc1ccccc1` [Example 27, (6S,9aS)-N-Benzyl-8-((6-(3-((3S)-3,4-dimethylpiperazin-1-yl)azetidin-1-yl)pyridin-2-yl)methyl)-6-((4-hydroxyphenyl)methyl)-4,7-dioxo-2-(prop-2-en-1-yl)-octahydro-1H-pyrazino[2,1-c][1,2,4]triazine-1-carboxamide], the Papp in data set [3] was determined as 1.04 ×10⁻⁶ cm/s. Besides, in data set [4], the “Test Example 2 residual ratio” value is reported as 57%. The solubility in data set [5] is 199 µM (≈ 141 µg/mL). Besides, the IC50 in the data set with Wnt signal was determined as 400 nM.

`C=CCN1CC(=O)N2[C@@H](Cc3ccc(O)cc3F)C(=O)N(Cc3ccc(F)c(N4CC(N5CCN(C)CC5)C4)n3)C[C@@H]2N1C(=O)NCc1ccccc1` [Example 10, (6S,9aS)-N-Benzyl-6-((2-fluoro-4-hydroxyphenyl)methyl)-8-((5-fluoro-6-(3-(4-methylpiperazin-1-yl)azetidin-1-yl)pyridin-2-yl)methyl)-4,7-dioxo-2-(prop-2-en-1-yl)-octahydro-1H-pyrazino[2,1-c][1,2,4]triazine-1-carboxamide]: in data set [3], the Papp stood at 3.75 ×10⁻⁶ cm/s. In data set [4], the “Test Example 2 residual ratio” value was determined as 28%. Also, the solubility in data set [5] was 184 µM (≈ 134 µg/mL). The IC50 in the data set with Wnt signal was 44 nM.

On to `C=CCN1CC(=O)N2[C@@H](Cc3ccc(O)cc3)C(=O)N(Cc3ccc(F)c(N4CC(N5CCC(N(C)C)CC5)C4)n3)C[C@@H]2N1C(=O)NCc1ccccc1` [Reference Example 1, (6S,9aS)-N-Benzyl-8-((6-(3-(4-(dimethylamino)piperidin-1-yl)azetidin-1-yl)-5-fluoropyridin-2-yl)methyl)-6-((4-hydroxyphenyl)methyl)-4,7-dioxo-2-(prop-2-en-1-yl)-octahydro-1H-pyrazino[2,1-c][1,2,4]triazine-1-carboxamide], for which the Papp in data set [3] came to 0.62 ×10⁻⁶ cm/s. The “Test Example 2 residual ratio” value in data set [4] worked out at 54%. Besides, the solubility in data set [5] was determined as 193 µM (≈ 143 µg/mL). The IC50 in the data set on Wnt signal worked out at 240 nM.

As for `C=CCN1CC(=O)N2[C@@H](Cc3ccc(O)cc3)C(=O)N(Cc3cccc(N4CC(N5CCN(C(C)C)CC5)C4)n3)C[C@@H]2N1C(=O)NCc1ccccc1` [Example 9, (6S,9aS)-N-Benzyl-6-((4-hydroxyphenyl)methyl)-4,7-dioxo-2-(prop-2-en-1-yl)-8-((6-(3-(4-(propan-2-yl)piperazin-1-yl)azetidin-1-yl)pyridin-2-yl)methyl)-octahydro-1H-pyrazino[2,1-c][1,2,4]triazine-1-carboxamide], the Papp in data set [3] was determined as 1.38 ×10⁻⁶ cm/s. For the same molecule, the “Test Example 2 residual ratio” value in data set [4] is given as 34%. Further, the solubility in data set [5] is 194 µM (≈ 140 µg/mL). For the same molecule, the IC50 with Wnt signal was determined as 150 nM.
